These results are taken from patent US20230167127A1, “COMPOUNDS AND THEIR USE IN THE TREATMENT OF BACTERIAL INFECTION” (Hoffmann-La Roche Inc., priority 2020, published 2023).

One assay has as its system Escherichia coli ATCC 25922. Put plainly: 50% growth inhibitory concentration (IC50) determination, Iso-Sensitest broth dilution. In kind it is cell-based. As to conditions: Escherichia coli, ATCC25922, 16 h, strain Escherichia coli ATCC 25922; 10-point broth dilution, optical density at 600 nm over 16 h; read-out: Escherichia coli growth inhibition IC50. As to the method: 50% Growth Inhibitory Concentration (IC50) Determination
The in vitro antimicrobial activity of the compounds was determined according to the following procedure:
The assay used a 10-point Iso-Sensitest broth dilution method to measure quantitatively the in vitro
ATCC 25922, Acinetobacter baumannii ATCC 17961, Klebsiella pneumoniae ATCC 43816 and Staphylococcus aureus ATCC 29213.
Stock compounds in DMSO were serially twofold diluted (e.g. range from 50 to 0.097 μM final concentration) in 384 wells microtiter plates and inoculated with 50 μL of the bacterial suspension in Iso-
ell of 50 μL/well. Microtiter plates were incubated at 35±2° C.
Bacterial cell growth was determined with the measurement of optical density at λ=600 nm each 20 minutes over a time course of 16 h.
Growth inhibition was calculated during the logarithmic growth of the bacterial cells with
Table 1 provides the 50% growth inhibitory concentrations (IC50) in micromoles per liter of the compounds of present invention obtained against the strain Escherichia coli ATCC 25922.
With `CNC(=O)COc1cc(F)c2c(c1)CC(CN1CCC3(CC1)CN(c1cnc4c(n1)NC(=O)CO4)C(=O)O3)C2` (centres unmarked) [Example 309, 2-[[7-fluoro-2-[[2-oxo-3-(3-oxo-4H-pyrazino[2,3-b][1,4]oxazin-6-yl)-1-oxa-3,8-diazaspiro[4.5]decan-8-yl]methyl]-2,3-dihydro-1H-inden-5-yl]oxy]-N-methylacetamide], the IC50 was < 97.7 nM.

On to `NC1(COc2cc(F)c3c(c2F)CC(CNCCC2CN(c4cnc5c(n4)NC(=O)CO5)C(=O)O2)C3)CC1` (centres unmarked) [Example 408, 6-[5-[2-[[5-[(1-aminocyclopropyl)methoxy]-4,7-difluoro-2,3-dihydro-1H-inden-2-yl]methylamino]ethyl]-2-oxo-1,3-oxazolidin-3-yl]-4H-pyrazino[2,3-b][1,4]oxazin-3-one; formic acid], for which the IC50 is < 97.7 nM.

As to `COc1cc2c(c(C#N)n1)CC(CNCCC1CN(c3cnc4c(n3)NC(=O)CO4)C(=O)O1)C2` (centres unmarked) [Example 65, 3-methoxy-6-[[2-[2-oxo-3-(3-oxo-4H-pyrazino[2,3-b][1,4]oxazin-6-yl)oxazolidin-5-yl]ethylamino]methyl]-6,7-dihydro-5H-cyclopenta[c]pyridine-1-carbonitrile; formic acid], the IC50 was < 97.7 nM.

As to `CCn1cc(C(=O)O)c(=O)c2ccc3c(c21)CC(CNCCC1CN(c2cnc4c(n2)NC(=O)CO4)C(=O)O1)C3` (centres unmarked) [Example 276, 1-Ethyl-4-oxo-8-[[2-[2-oxo-3-(3-oxo-4H-pyrazino[2,3-b][1,4]oxazin-6-yl)-1,3-oxazolidin-5-yl]ethylamino]methyl]-8,9-dihydro-7H-cyclopenta[h]quinoline-3-carboxylic acid], the IC50 turned out to be 635 nM.

Take `N#Cc1cc(OC2CCNC2)cc2c1CC(CNCCC1CN(c3ccc4c(n3)NC(=O)CO4)C(=O)O1)C2` (centres unmarked) [Example 254, 2-[[2-[2-Oxo-3-(3-oxo-4H-pyrido[3,2-b][1,4]oxazin-6-yl)-1,3-oxazolidin-5-yl]ethylamino]methyl]-6-pyrrolidin-3-yloxy-2,3-dihydro-1H-indene-4-carbonitrile; formic acid]: the IC50 was 188 nM.

Regarding `COc1ncc(F)c2c1CC(CNCCC1CN(c3ccc4c(n3)NC(=O)CO4)C(=O)O1)C2` (centres unmarked) [Example 70, 6-[5-[2-[(4-fluoro-1-methoxy-6,7-dihydro-5H-cyclopenta[c]pyridin-6-yl)methylamino]ethyl]-2-oxo-oxazolidin-3-yl]-4H-pyrido[3,2-b][1,4]oxazin-3-one], the IC50 is ≤ 97.7 nM.

`N#Cc1cccc2c1C(N)C(CNCCC1CN(c3ccc4c(n3)NC(=O)CO4)C(=O)O1)C2` (racemic) [Example 156, rac-2,3-trans-3-amino-2-[[2-[2-oxo-3-(3-oxo-4H-pyrido[3,2-b][1,4]oxazin-6-yl)-1,3-oxazolidin-5-yl]ethylamino]methyl]-2,3-dihydro-1H-indene-4-carbonitrile]: the IC50 was < 97.7 nM.

Take `CC(N)COc1cc2c(c(Cl)n1)CC(CNCCC1CN(c3ccc4c(n3)NC(=O)CO4)C(=O)O1)C2` (centres unmarked) [Example 144, 6-[5-[2-[[3-(2-aminopropoxy)-1-chloro-6,7-dihydro-5H-cyclopenta[c]pyridin-6-yl]methylamino]ethyl]-2-oxo-1,3-oxazolidin-3-yl]-4H-pyrido[3,2-b][1,4]oxazin-3-one; formic acid]: the IC50 was 131 nM.

On to `Cc1c(F)cnc2c1CC(CNCCC1CN(c3cnc4c(n3)NC(=O)CO4)C(=O)O1)C2` (centres unmarked) [Example 299, 6-[5-[2-[(3-fluoro-4-methyl-6,7-dihydro-5H-cyclopenta[b]pyridin-6-yl)methylamino]ethyl]-2-oxo-1,3-oxazolidin-3-yl]-4H-pyrazino[2,3-b][1,4]oxazin-3-one], for which the IC50 is < 97.7 nM.

For the compound `N#Cc1cc(OCC2CNC2)cc2c1CC(CNCCC1CN(c3ccc4c(n3)NC(=O)CO4)C(=O)O1)C2` (centres unmarked) [Example 191, 6-(azetidin-3-ylmethoxy)-2-[[2-[2-oxo-3-(3-oxo-4H-pyrido[3,2-b][1,4]oxazin-6-yl)-1,3-oxazolidin-5-yl]ethylamino]methyl]-2,3-dihydro-1H-indene-4-carbonitrile; 2,2,2-trifluoroacetic acid], the IC50 was found to be 295 nM.

Take `Cc1nc2c(c3c1CC(CNCCC1CN(c4cnc5c(n4)NC(=O)CO5)C(=O)O1)C3)CCN2C` (centres unmarked) [Example 424, 6-[5-[2-[(5,8-Dimethyl-5,7-diazatricyclo[7.3.0.0^2,6]dodeca-1,6,8-trien-11-yl)methylamino]ethyl]-2-oxo-1,3-oxazolidin-3-yl]-4H-pyrazino[2,3-b][1,4]oxazin-3-one]: the IC50 came out at 227 nM.

For `N#Cc1c(OC2CNC2)ccc2c1CC(CNCCC1CN(c3ccc4c(n3)NC(=O)CO4)C(=O)O1)C2` (centres unmarked) [Example 132, 5-(azetidin-3-yloxy)-2-[[2-[2-oxo-3-(3-oxo-4H-pyrido[3,2-b][1,4]oxazin-6-yl)-1,3-oxazolidin-5-yl]ethylamino]methyl]-2,3-dihydro-1H-indene-4-carbonitrile; formic acid], the IC50 came out at 145 nM.

On to `CNC(=O)COc1cc2c(c(Cl)n1)CC(CNCCC1CN(c3ccc4c(n3)NC(=O)CO4)C(=O)O1)C2` (centres unmarked) [Example 66, 2-[[1-chloro-6-[[2-[2-oxo-3-(3-oxo-4H-pyrido[3,2-b][1,4]oxazin-6-yl)oxazolidin-5-yl]ethylamino]methyl]-6,7-dihydro-5H-cyclopenta[c]pyridin-3-yl]oxy]-N-methyl-acetamide], for which the IC50 is 234 nM.

On to `Cc1ncc(F)c2c1CC(CNCCC1CN(c3cnc4c(n3)NC(=O)CO4)C(=O)O1)C2` (centres unmarked) [Example 51, 6-[5-[2-[(4-fluoro-1-methyl-6,7-dihydro-5H-cyclopenta[c]pyridin-6-yl)methylamino]ethyl]-2-oxo-1,3-oxazolidin-3-yl]-4H-pyrazino[2,3-b][1,4]oxazin-3-one], for which the IC50 was < 97.7 nM.

In the case of `NC1c2cccc(Cl)c2CC1CNCCc1nn(-c2cnc3c(n2)NC(=O)CO3)c(=O)o1` (racemic) [Example 337, 6-[2-oxo-5-[2-[[rac-1,2-trans-1-amino-4-chloro-2,3-dihydro-1H-inden-2-yl]methylamino]ethyl]-1,3,4-oxadiazol-3-yl]-4H-pyrazino[2,3-b][1,4]oxazin-3-one; formic acid], the IC50 came out at 1080 nM.

As for `CC(=O)NCCOc1ccc2c(c1C#N)CC(CNCCC1CN(c3ccc4c(n3)NC(=O)CO4)C(=O)O1)C2` (centres unmarked) [Example 56, N-[2-[[4-cyano-2-[[2-[2-oxo-3-(3-oxo-4H-pyrido[3,2-b][1,4]oxazin-6-yl)-1,3-oxazolidin-5-yl]ethylamino]methyl]-2,3-dihydro-1H-inden-5-yl]oxy]ethyl]acetamide], the IC50 turned out to be 941 nM.

For the compound `O=C1COc2ncc(N3CC(CCNCC4Cc5cc(OC6COC6)cc(F)c5C4)OC3=O)nc2N1` (centres unmarked) [Example 323, 6-[5-[2-[[4-fluoro-6-(oxetan-3-yloxy)-2,3-dihydro-1H-inden-2-yl]methylamino]ethyl]-2-oxo-1,3-oxazolidin-3-yl]-4H-pyrazino [2,3-b] [1,4]oxazin-3-one], the 50% inhibitory concentration (IC50) turned out to be 250 nM.

In the case of `Cc1c(OCC2(N)CC2)ncc2c1CC(CNCCC1CN(c3ccc4c(n3)NC(=O)CO4)C(=O)O1)C2` (centres unmarked) [Example 217, 6-[5-[2-[[3-[(1-aminocyclopropyl)methoxy]-4-methyl-6,7-dihydro-5H-cyclopenta[c]pyridin-6-yl]methylamino]ethyl]-2-oxo-1,3-oxazolidin-3-yl]-4H-pyrido[3,2-b][1,4]oxazin-3-one], the IC50 is < 97.7 nM.

In the case of `NC1(CNCCC2CN(c3ccc4c(n3)NC(=O)CO4)C(=O)O2)Cc2cccc(Cl)c2C1` (centres unmarked) [Example 240, 6-[5-[2-[(2-Amino-4-chloro-1,3-dihydroinden-2-yl)methylamino]ethyl]-2-oxo-1,3-oxazolidin-3-yl]-4H-pyrido[3,2-b][1,4]oxazin-3-one; formic acid], the IC50 came out at 278 nM.

On to `CNC(=O)COc1ncc2c(c1C)CC(CNCCC1CN(c3ccc4c(n3)NC(=O)CO4)C(=O)O1)C2` (centres unmarked) [Example 223, N-methyl-2-((4-methyl-6-(((2-(2-oxo-3-(3-oxo-3,4-dihydro-2H-pyrido[3,2-b][1,4]oxazin-6-yl)oxazolidin-5-yl)ethyl)amino)methyl)-6,7-dihydro-5H-cyclopenta[c]pyridin-3-yl)oxy)acetamide], for which the IC50 was found to be 389 nM.

On to `CNC(=O)COc1ccc2c(c1Cl)CC(CNCCC1CN(c3cnc4c(n3)NC(=O)CO4)C(=O)O1)C2` (centres unmarked) [Example 109, 2 2-[[4-chloro-2-[[2-[2-oxo-3-(3-oxo-4H-pyrazino[2,3-b][1,4]oxazin-6-yl)-1,3-oxazolidin-5-yl]ethylamino]methyl]-2,3-dihydro-1H-inden-5-yl]oxy]-N-methylacetamide], for which the IC50 was 98 nM.

For `N#CCOc1cc(F)c2c(c1)CC(CNCCC1CN(c3ccc4c(n3)NC(=O)CO4)C(=O)O1)C2` (centres unmarked) [Example 73, 2-[[7-fluoro-2-[[2-[2-oxo-3-(3-oxo-4H-pyrido[3,2-b][1,4]oxazin-6-yl)-1,3-oxazolidin-5-yl]ethylamino]methyl]-2,3-dihydro-1H-inden-5-yl]oxy]acetonitrile; formic acid], the IC50 is < 97.7 nM.

The same assay, now with this note: strain Escherichia coli ATCC 25922; 10-point broth dilution, optical density at 600 nm over 16 h; read-out: Escherichia coli growth inhibition IC50.
`N#Cc1cccc2c1CC(NC1CCC3(CN(c4ccc5c(n4)NC(=O)CO5)C(=O)O3)C(N)C1)C2` (racemic) [Example 241, 2-[[rac-5,6-trans-5,8-cis-6-Amino-2-oxo-3-(3-oxo-4H-pyrido[3,2-b][1,4]oxazin-6-yl)-1-oxa-3-azaspiro[4.5]decan-8-yl]amino]-2,3-dihydro-1H-indene-4-carbonitrile; formic acid]: the concentration for half-maximal inhibition (IC50) amounted to 509 nM.

Broadly, the IC50 is the concentration at which inhibition is half-maximal.
